Results reported in US10799605B2 (3B PHARMACEUTICALS GMBH, priority 2014, dated 2020).
Where two headings read alike, the source gives them in different places.

Columns and labels:
NTR1 [1] = molecular target: T1, NTR1 (Homo sapiens (Human), UniProt P30989); test: Functional Ca2+ mobilisation assay (example part II); type: cell-based; details: antagonist assay
From the text: (§1) Ca^2+ ions are usually kept at nanomolar levels in the cytosol of cells, and act in a number of signal transduction pathways as second messengers. […] Changes in calcium ion concentration in standard assay protocols can be readily detected with fluorescent dyes that emit light when changes in intracellular Ca2^+ ion concentration occur. Given the transient nature of these responses, they are often read with instrumentation that has ‘inject and read’ capability.
(§2) HT29 or NTR1-expressing HEK293 cells were trypsinized and seeded into black flat clear-bottom 96-well plates (Corning, Amsterdam, The Netherlands) at 6×10^5 cells per well. After 24 h incubation at 37° C. and 5% CO2, cells were washed twice with wash buffer (130 mM NaCl, 5 mM KCl, 10 mM Hepes, 2 mM CaCl2, 10 mM Glucose, pH 7.4) and loaded with 100 μl of Ca5 dye (Molecular Devices, Biberach, Germany) for 1 h at 37° C. and 5% CO2. For agonist assays, serial dilutions of agonistic substances were added to the cells loaded with dye and the change of the fluorescent signal was recorded continually for approx. 90 s using a FlexStation II (Molecular Devices, Biberach, Germany). Addition of wash buffer served as a control. Thus, EC50 concentrations for each compound were computed and provided a measure for the potency of the substance. For antagonist assays, cells loaded with 100 μl of Ca5-dye were pre-incubated with serial dilutions of antagonistic substances for 30 min, before the EC80-concentration of agonist was added to the cells and the change of the fluorescent signal was recorded continually for approx. 90 s. Thus, IC50 concentrations were computed for each compound and provided a measure for the inhibitory activity of the compounds at the NTR1.

NTR1 [2] = molecular target: T1, NTR1; test: Radioligand binding assay NTR1 (example part II); details: 0.05 nM 125I-(Tyr3-neurotensin), 60 min at 4° C.; read-out: IC50 [nM] RLB
Description: (§3) In order to determine the binding affinity of compounds comprising a radiolabel for NTR1, a radioligand binding assay was carried out. A radioligand is a radioactive biochemical substance that is used for diagnosis or for research-oriented study of cellular receptor systems of the body. In […] systems it is often used to quantify the binding of a test molecule to the binding site of radioligand. The higher the affinity of the molecule, the more radioligand is displaced from the binding site. The amount of bound radioligand can be measured by scintillation counting and thereby quantified. This assay is commonly used to calculate binding constants of molecules to receptors.
(§4) The NTR1 radioligand binding assay was performed by Cerep (Celle l'Evescault, France; Catalog reference 0109) according to Vita et al., FEBS Lett., 1993, 317, 139-142. NTR1 was prepared from CHO cells recombinantly expressing the human receptor and incubated with 0.05 nM ^125I-(Tyr^3-neurotensin) and serial dilutions of the test compounds. […] The result for each test compound is expressed as IC50 concentration and provides a measure for the affinity of the test compound for NTR1.

NTR1 [3] = molecular target: T1, NTR1; test: Radioligand binding assay NTR1 (example part I)
Description: as §3, §4

NTR1 [4] = molecular target: T1, NTR1; test: Functional Ca2+ mobilisation assay (example part I); type: cell-based
From the text: as §1, with “Ca^2+” for “Ca2^+”
as §2, with “conjugate” for “compound”, “conjugates” for “compounds”

T1 sequence (P30989 whole entry): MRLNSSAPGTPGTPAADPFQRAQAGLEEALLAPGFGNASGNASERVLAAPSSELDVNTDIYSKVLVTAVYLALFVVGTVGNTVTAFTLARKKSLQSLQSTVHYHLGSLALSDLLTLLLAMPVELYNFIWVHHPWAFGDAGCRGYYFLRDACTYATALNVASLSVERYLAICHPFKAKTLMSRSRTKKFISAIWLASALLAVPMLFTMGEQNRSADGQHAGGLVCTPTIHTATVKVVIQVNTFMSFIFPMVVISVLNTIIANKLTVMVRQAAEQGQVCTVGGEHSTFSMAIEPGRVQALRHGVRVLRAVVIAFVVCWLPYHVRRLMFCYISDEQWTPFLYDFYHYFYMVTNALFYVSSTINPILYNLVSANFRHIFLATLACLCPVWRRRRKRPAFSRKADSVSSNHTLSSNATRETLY

SMILES	IC50 (NTR1 [3])	EC50 (NTR1 [4])	IC50 (NTR1 [4])	also measured
COc1cccc(OC)c1-c1cc(C(=O)NC2(C(=O)O)C3CC4CC(C3)CC2C4)nn1-c1ccc(C(=O)N(C)CCCN(C)CCCN(C)C(=O)CCC(C(=O)O)N2CCN(CC(=O)O)CCN(CC(=O)O)CC2)cc1C(C)C (centres unmarked) [(IIId), 2-{[1-(4-{[3-({3-[(NODAGA)-methyl-amino]-propyl}-methyl-amino)-propyl]-methyl-carbamoyl}-2-isopropyl-phenyl)-5-(2,6-dimethoxy-phenyl)-1H-pyrazole-3-carbonyl]-amino}-adamantane-2-carboxylic acid]	–	–	–	IC50 (NTR1 [1]): 14.5 nM; IC50 (NTR1 [2]): 3.7 nM
CNCCCN(C)CCCN(C)C(=O)c1ccc(-n2nc(C(=O)NC3(C(=O)O)C4CC5CC(C4)CC3C5)cc2-c2c(OC)cccc2OC)c(C(C)C)c1 (centres unmarked) [(III), 2-({5-(2,6-Dimethoxy-phenyl)-1-[2-isopropyl-4-(methyl-{3-[methyl-(3-methylamino-propyl)-amino]-propyl}-carbamoyl)-phenyl]-1H-pyrazole-3-carbonyl}-amino)-adamantane-2-carboxylic acid]	–	–	–	IC50 (NTR1 [1]): 7.54 nM; IC50 (NTR1 [2]): 0.87 nM
COc1cccc(OC)c1-c1cc(C(=O)NC2(C(=O)O)C3CC4CC(C3)CC2C4)nn1-c1ccc(C(=O)N(C)CCCN(C)CCCN(C)C(=O)CCCC(=O)NCCCOCCOCCOCCCNC(=O)CCC(=O)N[C@@H](CCCCNC(=O)CN2CCN(CC(=O)O)CCN(CC(=O)O)CCN(CC(=O)O)CC2)C(=O)NCCCOCCOCCOCCCNC(=O)CCC(=O)NCCCC(=O)N[C@H](CCCNC(=N)N)C(=O)N[C@@H](CCCNC(=N)N)C(=O)N2CCC[C@H]2C(=O)N[C@@H](Cc2ccc(O)cc2)C(=O)N[C@H](C(=O)N[C@@H](CC(C)C)C(=O)O)C(C)(C)C)cc1C(C)C (stereo partly drawn) [(17), 1206-Glutar-Ttds-Lys(DOTA)-Ttds-GABA-arg-Arg-Pro-Tyr-Tle-Leu-OH]	0.32 nM	7 nM	3.4 nM	shape of EC50 curve (NTR1 [4]; agonist assay): bell-shaped EC50 curves
COc1cccc(OC)c1-c1cc(C(=O)NC2(C(=O)O)C3CC4CC(C3)CC2C4)nn1-c1ccc(C(=O)N(C)CCCN(C)CCCN(C)C(=O)CCCC(=O)NCCCC[C@H](NC(=O)CCC(=O)NCCCOCCOCCOCCCNC(=O)CCC(=O)NCCCOCCOCCOCCCNC(=O)CCC(=O)NCCCOCCOCCOCCCNC(=O)[C@H](CCCCNC(=O)CN2CCN(CC(=O)O)CCN(CC(=O)O)CCN(CC(=O)O)CC2)NC(=O)CCC(=O)NCCCOCCOCCOCCCNC(=O)CCC(=O)NCCCOCCOCCOCCCNC(=O)CCC(=O)NCCCOCCOCCOCCCNC(=O)CCCC(=O)N(C)CCCN(C)CCCN(C)C(=O)c2ccc(-n3nc(C(=O)NC4(C(=O)O)C5CC6CC(C5)CC4C6)cc3-c3c(OC)cccc3OC)c(C(C)C)c2)C(N)=O)cc1C(C)C (some centres unmarked) [(15), 1206-Glutar-Ttds3-Lys(DOTA)-Ttds3-(ε-Lys-NH2)-Glutar-1206]	4.7 nM	> 50000 nM	2.3 nM	–
COc1cccc(OC)c1-c1cc(C(=O)NC2(C(=O)O)C3CC4CC(C3)CC2C4)nn1-c1ccc(C(=O)N(C)CCCN(C)CCCN(C)C(=O)CCCC(=O)NCCCOCCOCCOCCCNC(=O)CCC(=O)NCCCOCCOCCOCCCNC(=O)CCC(=O)NCCCOCCOCCOCCCNC(=O)CCC(=O)N[C@@H](CC(N)=O)C(=O)N[C@@H](C)C(=O)N[C@H](C(=O)N2CCC[C@H]2C(=O)N[C@@H](CC(N)=O)C(=O)N[C@@H](CC(C)C)C(=O)N[C@@H](CCCNC(=N)N)C(=O)NCC(=O)N[C@@H](CC(=O)O)C(=O)N[C@@H](CC(C)C)C(=O)N[C@@H](CCC(N)=O)C(=O)N[C@H](C(=O)N[C@@H](CC(C)C)C(=O)N[C@@H](C)C(=O)N[C@@H](CCC(N)=O)C(=O)N[C@@H](CCCCN)C(=O)N[C@H](C(=O)N[C@@H](C)C(=O)N[C@@H](CCCNC(=N)N)C(=O)N[C@H](C(=O)NCCCC(=O)NCCCOCCOCCOCCCNC(=O)CCC(=O)N[C@@H](CCCCNC(=O)CN2CCN(CC(=O)O)CCN(CC(=O)O)CCN(CC(=O)O)CC2)C(N)=O)[C@@H](C)O)C(C)C)C(C)C)C(C)C)cc1C(C)C (some centres unmarked) [(24)]	9.9 nM	> 50000 nM	38 nM	–
COc1cccc(OC)c1-c1cc(C(=O)NC2(C(=O)O)C3CC4CC(C3)CC2C4)nn1-c1ccc(C(=O)N(C)CCCN(C)CCCN(C)C(=O)CCCNC(=O)[C@H](CCCCNC(=O)CN2CCN(CC(=O)O)CCN(CC(=O)O)CCN(CC(=O)O)CC2)NC(=O)CCCC(=O)N(C)CCCN(C)CCCN(C)C(=O)c2ccc(-n3nc(C(=O)NC4(C(=O)O)C5CC6CC(C5)CC4C6)cc3-c3c(OC)cccc3OC)c(C(C)C)c2)cc1C(C)C (some centres unmarked) [(13), 1206-Glutar-Lys(DOTA)-GABA-1206]	–	–	–	IC50 (NTR1 [3]; 0.05 nM 125I-(Tyr3-neurotensin), 60 min at 4° C., read-out: IC50): 2.2 nM; EC50 (NTR1 [4]; agonist assay, * bell-shaped curves, EC50 from ascending part of the curve, read-out: Agonistic Effect EC50): > 50000 nM; IC50 (NTR1 [4]; antagonist assay, 30 min pre-incubation, EC80-concentration of agonist, read-out: Antagonistic Effect IC50): 6.1 nM
COc1cccc(OC)c1-c1cc(C(=O)NC2(C(=O)O)C3CC4CC(C3)CC2C4)nn1-c1ccc(C(=O)N(C)CCCN(C)CCCN(C)C(=O)CCCC(=O)NCCCOCCOCCOCCCNC(=O)CCC(=O)N[C@@H](CCCCNC(=O)CN2CCN(CC(=O)O)CCN(CC(=O)O)CCN(CC(=O)O)CC2)C(=O)NCCCOCCOCCOCCCNC(=O)CCC(=O)NCCCC(=O)N[C@@H](CC(N)=O)C(=O)N[C@@H](C)C(=O)N[C@H](C(=O)N2CCC[C@H]2C(=O)N[C@@H](CC(N)=O)C(=O)N[C@@H](CC(C)C)C(=O)N[C@@H](CCCNC(=N)N)C(=O)NCC(=O)N[C@@H](CC(=O)O)C(=O)N[C@@H](CC(C)C)C(=O)N[C@@H](CCC(N)=O)C(=O)N[C@H](C(=O)N[C@@H](CC(C)C)C(=O)N[C@@H](C)C(=O)N[C@@H](CCC(N)=O)C(=O)N[C@@H](CCCCN)C(=O)N[C@H](C(=O)N[C@@H](C)C(=O)N[C@@H](CCCNC(=N)N)C(=O)N[C@H](C(N)=O)[C@@H](C)O)C(C)C)C(C)C)C(C)C)cc1C(C)C (some centres unmarked) [(21)]	10 nM	> 50000 nM	18 nM	–
COc1cccc(OC)c1-c1cc(C(=O)NC2(C(=O)O)C3CC4CC(C3)CC2C4)nn1-c1ccc(C(=O)N(C)CCCN(C)CCCN(C)C(=O)CCCC(=O)NCCCC[C@H](NC(=O)CCC(=O)NCCCOCCOCCOCCCNC(=O)CCC(=O)NCCCOCCOCCOCCCNC(=O)CCC(=O)NCCCOCCOCCOCCCNC(=O)[C@H](CCCCNC(=O)CN2CCN(CC(=O)O)CCN(CC(=O)O)CCN(CC(=O)O)CC2)NC(=O)CCC(=O)NCCCOCCOCCOCCCNC(=O)CCC(=O)NCCCOCCOCCOCCCNC(=O)CCC(=O)NCCCOCCOCCOCCCNC(=O)CCCNC(=O)[C@@H](NC(=O)[C@H](CCCNC(=N)N)NC(=O)[C@H](C)NC(=O)[C@@H](NC(=O)[C@H](CCCCN)NC(=O)[C@H](CCC(N)=O)NC(=O)[C@H](C)NC(=O)[C@H](CC(C)C)NC(=O)[C@@H](NC(=O)[C@H](CCC(N)=O)NC(=O)[C@H](CC(C)C)NC(=O)[C@H](CC(=O)O)NC(=O)CNC(=O)[C@H](CCCNC(=N)N)NC(=O)[C@H](CC(C)C)NC(=O)[C@H](CC(N)=O)NC(=O)[C@@H]2CCCN2C(=O)[C@@H](NC(=O)[C@H](C)NC(=O)[C@H](CC(N)=O)NC(C)=O)C(C)C)C(C)C)C(C)C)[C@@H](C)O)C(N)=O)cc1C(C)C (some centres unmarked) [(22)]	9.1 nM	> 50000 nM	21 nM	–
